Measured values from US20240124439A1, “Pyrido[2,3-D]Imidazole Derivatives and Their Use As Inhibitors of ITK for the Treatment of Skin Disease” (Pfizer Inc., priority 2020, published 2024).

Tests used:
[1] = test system: activated CD4+ human T-cells (IL-2); assay: IL-2 inhibition in supernatants from activated CD4+ human T-cells (cisbio HTRF); assay type: cell-based; conditions: T-cell; CD3/CD28-activated CD4+ human T cells, ImmunoCult stimulation 20 to 24 hrs; geometric mean of count n
Method in brief: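 Primary human CD4+ T cells activated with CD3/CD28 for 3 days and expanded to 7-9 days total, plated at 30,000 cells/well. Cells preincubated 15 min with compound, then stimulated with ImmunoCult (1:50 final) for 20-24 h at 37° C. Supernatant IL-2 measured by HTRF (665/615 nm); IC50 from four-parameter logistic fit.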

[2] = molecular target: IL-2-Inducible T-Cell Kinase (ITK) (Homo sapiens (Human), UniProt Q08881); assay: ITK enzyme assay (IL-2-inducible T-cell kinase activity); assay type: biochemical; conditions: geometric mean of count n
Chain of IL-2-Inducible T-Cell Kinase (ITK) (Q08881 whole entry): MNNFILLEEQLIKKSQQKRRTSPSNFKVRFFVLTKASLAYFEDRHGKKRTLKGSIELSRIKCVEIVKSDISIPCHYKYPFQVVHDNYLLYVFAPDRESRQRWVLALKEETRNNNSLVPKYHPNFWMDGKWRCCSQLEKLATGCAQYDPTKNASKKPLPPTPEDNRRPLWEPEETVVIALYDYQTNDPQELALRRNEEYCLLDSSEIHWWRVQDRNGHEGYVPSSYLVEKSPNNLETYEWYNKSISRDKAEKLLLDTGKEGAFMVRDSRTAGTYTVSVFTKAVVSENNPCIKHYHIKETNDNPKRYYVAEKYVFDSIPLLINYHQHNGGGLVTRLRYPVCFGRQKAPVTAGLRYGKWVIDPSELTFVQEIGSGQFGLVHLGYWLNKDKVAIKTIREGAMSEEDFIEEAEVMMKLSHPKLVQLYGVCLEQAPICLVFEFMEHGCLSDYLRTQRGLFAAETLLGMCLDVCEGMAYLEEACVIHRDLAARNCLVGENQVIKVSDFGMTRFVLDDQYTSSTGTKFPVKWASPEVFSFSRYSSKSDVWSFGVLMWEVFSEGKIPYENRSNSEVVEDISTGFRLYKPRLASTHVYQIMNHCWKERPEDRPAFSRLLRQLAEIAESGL
Method in brief: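 Full-length N-Flag/C-His human ITK, pre-incubated 30 min at RT with compound. Reaction in HEPES pH 7.5 buffer with MgCl2, glutathione, gelatin and Brij-35, started with BTK peptide substrate, 60 min at RT. EDTA stop, PT66/APC TR-FRET detection overnight; IC50 fitted by four-parameter logistic.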

[3] = molecular target: Tropomyosin Receptor Kinase A (TRKA), NTRK1 enzyme (Homo sapiens (Human), UniProt P04629); assay: TRKA (NTRK1) ThermoFisher Z'-LYTE enzyme assay; assay type: biochemical; conditions: test compound 1 uM, ATP 1 mM; arithmetic mean of count n
Chain of Tropomyosin Receptor Kinase A (TRKA), NTRK1 enzyme (P04629 33-796): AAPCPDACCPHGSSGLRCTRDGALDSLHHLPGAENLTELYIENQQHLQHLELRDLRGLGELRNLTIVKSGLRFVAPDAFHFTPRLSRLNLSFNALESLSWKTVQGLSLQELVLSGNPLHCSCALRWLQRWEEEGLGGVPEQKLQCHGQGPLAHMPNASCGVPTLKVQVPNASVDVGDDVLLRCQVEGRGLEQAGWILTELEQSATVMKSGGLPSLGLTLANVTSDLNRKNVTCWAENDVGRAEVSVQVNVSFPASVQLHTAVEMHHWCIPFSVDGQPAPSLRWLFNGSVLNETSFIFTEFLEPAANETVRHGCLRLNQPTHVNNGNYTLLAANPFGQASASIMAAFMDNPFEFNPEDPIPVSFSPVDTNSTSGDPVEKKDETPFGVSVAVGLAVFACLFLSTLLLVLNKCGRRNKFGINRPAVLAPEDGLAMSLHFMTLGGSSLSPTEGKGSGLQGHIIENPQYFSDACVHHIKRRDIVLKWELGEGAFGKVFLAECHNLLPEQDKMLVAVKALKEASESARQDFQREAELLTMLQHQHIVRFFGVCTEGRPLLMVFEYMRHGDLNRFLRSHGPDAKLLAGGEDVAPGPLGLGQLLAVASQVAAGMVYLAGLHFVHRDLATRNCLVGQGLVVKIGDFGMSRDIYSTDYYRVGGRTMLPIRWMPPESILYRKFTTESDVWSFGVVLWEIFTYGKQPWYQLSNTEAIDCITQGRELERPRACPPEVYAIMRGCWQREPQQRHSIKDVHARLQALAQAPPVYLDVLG
Method: TRKA, also known as neurotrophic tyrosine kinase receptor type 1 (NTKR1) activity was determined by measuring the effect of a test compound on the activity against the NTRK1 enzyme using the ThermoFisher Z′-LYTE Assay fluorescence-based coupled enzyme format (www.thermofisher.com/selectscreen). Test compounds were screened at a fixed concentration of 1 uM and the % inhibition was determined compared to controls at a fixed ATP concentration of 1 mM. The resulting effect value for the tested compound was compared to the assay controls to determine the % inhibition (%).

| Structure (SMILES) | IC50 [1] | IC50 [2] | inhibition at 1 µM [3] |
| --- | --- | --- | --- |
| CN(C(=O)C(F)(F)C1CCOCC1)c1cnc2[nH]c(-c3n[nH]c4c3C[C@@H]3C[C@]3(C)C4)nc2c1 [Example 2, 2,2-Difluoro-N-methyl-N-(2-((4aS,5aR)-5a-methyl-1,4,4a,5,5a,6-hexahydrocyclopropa[f]indazol-3-yl)-3H-imidazo[4,5-b]pyridin-6-yl)-2-(tetrahydro-2H-pyran-4-yl)acetamide] | 92 nM | 14 nM | 108% |
| C[C@@H](C(=O)N(C)c1cnc2[nH]c(-c3n[nH]c4c3C[C@@H]3C[C@]3(C)C4)nc2c1)C1CCOCC1 [Example 1, (R)-N-Methyl-N-(2-((4aS,5aR)-5a-methyl-1,4,4a,5,5a,6-hexahydrocyclopropa[f]indazol-3-yl)-3H-imidazo[4,5-b]pyridin-6-yl)-2-(tetrahydro-2H-pyran-4-yl)propenamide] | 67 nM | 9 nM | 96% |
| C[C@@H](C(=O)N(C)c1cnc2[nH]c(-c3n[nH]c4c3CCC(C)(C)C4)nc2c1)N1CCOCC1 [Example 14, (S)-N-(2-(6,6-Dimethyl-4,5,6,7-tetrahydro-1H-indazol-3-yl)-3H-imidazo[4,5-b]pyridin-6-yl)-N-methyl-2-morpholinopropanamide] | 157 nM | – | 92% |
| CC(=O)N(C)c1cnc2[nH]c(-c3n[nH]c4c3CCC(C)(C)C4)nc2c1 [Example 20, N-(2-(6,6-Dimethyl-4,5,6,7-tetrahydro-1H-indazol-3-yl)-3H-imidazo[4,5-b]pyridin-6-yl)-N-methylacetamide] | 1200 nM | 231 nM | – |
| C[C@H](C(=O)N(C)c1cnc2[nH]c(-c3n[nH]c4c3C[C@@H]3C[C@]3(C)C4)nc2c1)N1CCOCC1 [Example 26, (R)-N-Methyl-N-(2-((4aS,5aR)-5a-methyl-1,4,4a,5,5a,6-hexahydrocyclopropa[f]indazol-3-yl)-3H-imidazo[4,5-b]pyridin-6-yl)-2-morpholinopropanamide] | 631 nM | – | 91% |
| C[C@@H](C(=O)N(CCO)c1cnc2[nH]c(-c3n[nH]c4c3C[C@@H]3C[C@]3(C)C4)nc2c1)N1CCOCC1 [Example 15, (S)-N-(2-Hydroxyethyl)-N-(2-((4aS,5aR)-5a-methyl-1,4,4a,5,5a,6-hexahydrocyclopropa[f]indazol-3-yl)-3H-imidazo[4,5-b]pyridin-6-yl)-2-morpholinopropanamide] | 1230 nM | 83 nM | – |
| CN(C(=O)[C@@H](F)C1CCOCC1)c1cnc2nc(-c3n[nH]c4c3C[C@@H]3C[C@]3(C)C4)[nH]c2c1 [Example 13, (S)-2-Fluoro-N-methyl-N-(2-((4aS,5aR)-5a-methyl-1,4,4a,5,5a,6-hexahydrocyclopropa[f]indazol-3-yl)-1H-imidazo[4,5-b]pyridin-6-yl)-2-(tetrahydro-2H-pyran-4-yl)acetamide] | 559 nM | 102 nM | – |
| CC(=O)N(C)c1cnc2[nH]c(-c3n[nH]c4c3C[C@@H]3C[C@]3(C)C4)nc2c1 [Example 25, N-methyl-N-(2-((4aS,5aR)-5a-Methyl-1,4,4a,5,5a,6-hexahydrocyclopropa[f]indazol-3-yl)-1H-imidazo[4,5-b]pyridin-6-yl)acetamide] | 709 nM | 130 nM | – |
| C[C@H](C(=O)N(C)c1cnc2[nH]c(-c3n[nH]c4c3C[C@@H]3C[C@]3(C)C4)nc2c1)N1CC2CC(C1)O2 (single isomer, unassigned) [Example 42] | 143 nM | 21 nM | – |
| CCN(C(=O)[C@H](C)C1CCOCC1)c1cnc2[nH]c(-c3n[nH]c4c3CCC(C)(C)C4)nc2c1 [Example 18] | 162 nM | – | 97% |
| CCN(C(=O)[C@H](C)N1CCOCC1)c1cnc2nc(-c3n[nH]c4c3C[C@@H]3C[C@]3(C)C4)[nH]c2c1 [Example 21, (S)-N-Ethyl-N-(2-((4aS,5aR)-5a-methyl-1,4,4a,5,5a,6-hexahydrocyclopropa[f]indazol-3-yl)-1H-imidazo[4,5-b]pyridin-6-yl)-2-morpholinopropanamide] | 193 nM | 38 nM | – |
| C[C@@H](C(=O)N(C)c1cnc2[nH]c(-c3n[nH]c4c3C[C@@H]3C[C@]3(C)C4)nc2c1)N1CC2CC(C1)O2 (single isomer, unassigned) [Example 41] | 600 nM | 116 nM | – |
| CN(C(=O)Cn1cccn1)c1cnc2nc(-c3n[nH]c4c3C[C@@H]3C[C@]3(C)C4)[nH]c2c1 [Example 6, N-Methyl-N-(2-((4aS,5aR)-5a-methyl-1,4,4a,5,5a,6-hexahydrocyclopropa[f]indazol-3-yl)-1H-imidazo[4,5-b]pyridin-6-yl)-2-(1H-pyrazol-1-yl)acetamide] | 343 nM | 26 nM | – |

The next lines start with the values.

| IC50 [1] | IC50 [2] | inhibition at 1 µM [3] | Structure (SMILES) |
| --- | --- | --- | --- |
| 266 nM | 64 nM | 93% | CN(C(=O)C1(F)CCC1)c1cnc2[nH]c(-c3n[nH]c4c3CCC(C)(C)C4)nc2c1 [Example 95, N-(2-(6,6-Dimethyl-4,5,6,7-tetrahydro-1H-indazol-3-yl)-3H-imidazo[4,5-b]pyridin-6-yl)-1-fluoro-N-methylcyclobutane-1-carboxamide] |
| 189 nM | 44 nM | 95% | CN(C(=O)CC1CCCCC1)c1cnc2nc(-c3n[nH]c4c3C[C@@H]3C[C@]3(C)C4)[nH]c2c1 [Example 47, 2-Cyclohexyl-N-methyl-N-(2-((4aS,5aR)-5a-methyl-1,4,4a,5,5a,6-hexahydrocyclopropa[f]indazol-3-yl)-1H-imidazo[4,5-b]pyridin-6-yl)acetamide] |
| 1590 nM | 554 nM | – | CN(C(=O)C1CCC(F)(F)CC1)c1cnc2[nH]c(-c3n[nH]c4c3CCC(C)(C)C4)nc2c1 [Example 110, N-(2-(6,6-Dimethyl-4,5,6,7-tetrahydro-1H-indazol-3-yl)-3H-imidazo[4,5-b]pyridin-6-yl)-4,4-difluoro-N-methylcyclohexane-1-carboxamide] |
| 392 nM | 104 nM | – | CC(C)C(=O)N(C)c1cnc2[nH]c(-c3n[nH]c4c3CCC(C)(C)C4)nc2c1 [Example 103, N-(2-(6,6-Dimethyl-4,5,6,7-tetrahydro-1H-indazol-3-yl)-3H-imidazo[4,5-b]pyridin-6-yl)-N-methylisobutyramide] |
| 481 nM | 61 nM | – | Cc1nc2[nH]c(-c3n[nH]c4c3C[C@@H]3C[C@]3(C)C4)nc2cc1N(C)C(=O)[C@H](C)N1CCOCC1 [Example 34, (S)-N-Methyl-N-(5-methyl-2-((4aS,5aR)-5a-methyl-1,4,4a,5,5a,6-hexahydrocyclopropa[f]indazol-3-yl)-3H-imidazo[4,5-b]pyridin-6-yl)-2-morpholinopropanamide] |
| 351 nM | 134 nM | – | C[C@@H](C(=O)N(C)c1cnc2[nH]c(-c3n[nH]c4c3C[C@@H]3C[C@]3(C)C4)nc2c1)N1CCCOCC1 [Example 43, (S)-N-Methyl-N-(2-((4aS,5aR)-5a-methyl-1,4,4a,5,5a,6-hexahydrocyclopropa[f]indazol-3-yl)-3H-imidazo[4,5-b]pyridin-6-yl)-2-(1,4-oxazepan-4-yl)propenamide] |
| 862 nM | 57 nM | – | CC(=O)N(CC(=O)N(C)c1cnc2nc(-c3n[nH]c4c3C[C@@H]3C[C@]3(C)C4)[nH]c2c1)C(C)C [Example 75, 2-(N-Isopropylacetamido)-N-methyl-N-(2-((4aS,5aR)-5a-methyl-1,4,4a,5,5a,6-hexahydrocyclopropa[f]indazol-3-yl)-1H-imidazo[4,5-b]pyridin-6-yl)acetamide] |
| 464 nM | 152 nM | – | COCCOc1nc2[nH]c(-c3n[nH]c4c3C[C@@H]3C[C@]3(C)C4)nc2cc1N(C)C(=O)CN1CCOCC1 [Example 38, N-(5-(2-Methoxyethoxy)-2-((4aS,5aR)-5a-methyl-1,4,4a,5,5a,6-hexahydrocyclopropa[f]indazol-3-yl)-3H-imidazo[4,5-b]pyridin-6-yl)-N-methyl-2-morpholinoacetamide] |
| 808 nM | 118 nM | – | CCC(C)(C)C(=O)N(C)c1cnc2nc(-c3n[nH]c4c3C[C@@H]3C[C@]3(C)C4)[nH]c2c1 [Example 88, N,2,2-Trimethyl-N-(2-((4aS,5aR)-5a-methyl-1,4,4a,5,5a,6-hexahydrocyclopropa[f]indazol-3-yl)-1H-imidazo[4,5-b]pyridin-6-yl)butanamide] |
| 908 nM | 421 nM | – | CN(C(=O)C1(C)CCOCC1)c1cnc2[nH]c(-c3n[nH]c4c3CCC(C)(C)C4)nc2c1 [Example 109, N-(2-(6,6-Dimethyl-4,5,6,7-tetrahydro-1H-indazol-3-yl)-3H-imidazo[4,5-b]pyridin-6-yl)-N,4-dimethyltetrahydro-2H-pyran-4-carboxamide] |
| 1870 nM | 564 nM | – | CCC(CC)C(=O)N(C)c1cnc2[nH]c(-c3n[nH]c4c3CCC(C)(C)C4)nc2c1 [Example 107, N-(2-(6,6-Dimethyl-4,5,6,7-tetrahydro-1H-indazol-3-yl)-3H-imidazo[4,5-b]pyridin-6-yl)-2-ethyl-N-methylbutanamide] |
